Assay results taken from US8741915B2, “Dihydropyrimidin-2(1H)-one compounds as S-nitrosoglutathione reductase inhibitors” (N30 Pharmaceuticals, Inc., priority 2009, dated 2014).

target: GSNOR (Homo sapiens (Human), UniProt P11766); assay: GSNOR assay (inhibition of GSNOR activity in vitro, change in 340 nm absorbance with GSNO/NADH); settings: GSNOR IC50, Table 1, racemates and separated enantiomers
Sequence (P11766 whole entry): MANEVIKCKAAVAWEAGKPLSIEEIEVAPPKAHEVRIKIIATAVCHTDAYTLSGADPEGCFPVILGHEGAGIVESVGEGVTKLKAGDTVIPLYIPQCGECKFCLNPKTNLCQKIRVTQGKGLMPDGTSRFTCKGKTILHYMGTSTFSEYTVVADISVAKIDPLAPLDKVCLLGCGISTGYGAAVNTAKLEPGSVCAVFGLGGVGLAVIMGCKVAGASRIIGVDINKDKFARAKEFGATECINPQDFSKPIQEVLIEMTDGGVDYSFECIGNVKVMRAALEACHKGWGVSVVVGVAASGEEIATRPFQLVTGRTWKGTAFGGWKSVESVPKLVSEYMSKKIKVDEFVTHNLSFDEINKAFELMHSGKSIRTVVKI

Row | IC50 [nM] | SMILES
1 | 23 | Cn1cc(C2=C(c3ccsc3)[C@H](c3ccc(C(=O)O)c(O)c3)NC(=O)N2)cn1 [Example 169, (S)-2-hydroxy-4-(6-(1-methyl-1H-pyrazol-4-yl)-2-oxo-5-(thiophen-3-yl)-1,2,3,4-tetrahydropyrimidin-4-yl)benzoic acid]
2 | 13 | CCOc1cc([C@@H]2NC(=O)NC(c3cnn(C)c3)=C2c2ccsc2)cc(C(=O)O)c1O [Example 146, (S)-3-ethoxy-2-hydroxy-5-(6-(1-methyl-1H-pyrazol-4-yl)-2-oxo-5-(thiophen-3-yl)-1,2,3,4-tetrahydropyrimidin-4-yl)benzoic acid]

same assay, conditions: IC50, upper bound (about <)

Row | SMILES | IC50 [nM]
3 | CCOc1cc(C2NC(=O)NC(c3ccc(NC(C)=O)cc3)=C2c2ccccc2)cc([N+](=O)[O-])c1O (centres unmarked) [Example 73, N-(4-(6-(3-ethoxy-4-hydroxy-5-nitrophenyl)-2-oxo-5-phenyl-1,2,3,6-tetrahydropyrimidin-4-yl)phenyl)acetamide] | < 100
4 | CCOc1cc(C2NC(=O)NC(c3ccccc3)=C2c2cccc(OC)c2)cc([N+](=O)[O-])c1O (centres unmarked) [Example 23, 4-(3-ethoxy-4-hydroxy-5-nitrophenyl)-5-(3-methoxyphenyl)-6-phenyl-3,4-dihydropyrimidin-2(1H)-one] | < 100
5 | COc1cc(C2NC(=O)NC(c3ccccc3)=C2c2ccccc2)cc([N+](=O)[O-])c1O (centres unmarked) [Example 9, 4-(4-hydroxy-3-methoxy-5-nitrophenyl)-5,6-diphenyl-3,4-dihydropyrimidin-2(1H)-one] | < 100
6 | CCOc1cc(C2NC(=O)NC(c3ccc(C#N)cc3)=C2c2ccccc2)cc([N+](=O)[O-])c1O (centres unmarked) [Example 63, 4-(6-(3-ethoxy-4-hydroxy-5-nitrophenyl)-2-oxo-5-phenyl-1,2,3,6-tetrahydropyrimidin-4-yl)benzonitrile] | < 100
7 | CCOc1cc(C2NC(=O)NC(c3cccc(C#N)c3)=C2c2ccccc2)cc([N+](=O)[O-])c1O (centres unmarked) [Example 53, 3-(6-(3-ethoxy-4-hydroxy-5-nitrophenyl)-2-oxo-5-phenyl-1,2,3,6-tetrahydropyrimidin-4-yl)benzonitrile] | < 100
8 | CCOc1cc(C2NC(=O)NC(c3ccccc3)=C2c2ccccc2F)cc([N+](=O)[O-])c1O (centres unmarked) [Example 13, 4-(3-ethoxy-4-hydroxy-5-nitrophenyl)-5-(2-fluorophenyl)-6-phenyl-3,4-dihydropyrimidin-2(1H)-one] | < 100
9 | CCOc1cc(C2NC(=O)NC(c3ccc4c(c3)OCO4)=C2c2ccccc2)cc([N+](=O)[O-])c1O (centres unmarked) [Example 61, 6-(benzo[d][1,3]dioxol-5-yl)-4-(3-ethoxy-4-hydroxy-5-nitrophenyl)-5-phenyl-3,4-dihydropyrimidin-2(1H)-one] | < 100
10 | CCOc1cc(C2NC(=O)NC(c3ccc(NC(=O)OC)cc3)=C2c2ccccc2)cc([N+](=O)[O-])c1O (centres unmarked) [Example 83, methyl 4-(6-(3-ethoxy-4-hydroxy-5-nitrophenyl)-2-oxo-5-phenyl-1,2,3,6-tetrahydropyrimidin-4-yl)phenylcarbamate] | < 100
11 | CCOc1cc(C2NC(=O)NC(c3ccncc3)=C2c2ccccc2)cc([N+](=O)[O-])c1O (centres unmarked) [Example 71, 4-(3-ethoxy-4-hydroxy-5-nitrophenyl)-5-phenyl-6-(pyridin-4-yl)-3,4-dihydropyrimidin-2(1H)-one] | < 100
12 | CCOc1cc(C2NC(=O)NC(c3ccccc3)=C2c2ccccc2)cc(C#N)c1O (centres unmarked) [Example 69, 3-ethoxy-2-hydroxy-5-(2-oxo-5,6-diphenyl-1,2,3,4-tetrahydropyrimidin-4-yl)benzonitrile] | < 1000
13 | CCOc1cc(C2NC(=O)NC(c3ccccc3)=C2c2ccccc2C)cc([N+](=O)[O-])c1O (centres unmarked) [Example 26, 4-(3-ethoxy-4-hydroxy-5-nitrophenyl)-6-phenyl-5-o-tolyl-3,4-dihydropyrimidin-2(1H)-one] | < 1000
14 | CCOc1cc(C2NC(=O)NC(c3cccc4ccccc34)=C2c2ccccc2)cc([N+](=O)[O-])c1O (centres unmarked) [Example 81, 4-(3-ethoxy-4-hydroxy-5-nitrophenyl)-6-(naphthalen-1-yl)-5-phenyl-3,4-dihydropyrimidin-2(1H)-one] | < 100
15 | CCOc1cc(C2NC(=O)NC(c3ccccc3)=C2c2cccc(C#N)c2)cc([N+](=O)[O-])c1O (centres unmarked) [Example 29, 3-(4-(3-ethoxy-4-hydroxy-5-nitrophenyl)-2-oxo-6-phenyl-1,2,3,4-tetrahydropyrimidin-5-yl)benzonitrile] | < 100

Continued, values first:

Row | IC50 [nM] | SMILES
16 | < 100 | CCOc1cc(C2NC(=O)NC(c3ccccc3)=C2C2CCCCC2)cc([N+](=O)[O-])c1O (centres unmarked) [Example 177, 5-cyclohexyl-4-(3-ethoxy-4-hydroxy-5-nitrophenyl)-6-phenyl-3,4-dihydropyrimidin-2(1H)-one]
17 | < 100 | Cn1cc(C2=C(c3ccsc3)[C@H](c3ccc(C(=O)O)c(O)c3)NC(=O)N2)cn1 [Example 169, (S)-2-hydroxy-4-(6-(1-methyl-1H-pyrazol-4-yl)-2-oxo-5-(thiophen-3-yl)-1,2,3,4-tetrahydropyrimidin-4-yl)benzoic acid]
18 | < 100 | CCOc1cc(C2NC(=O)NC(c3ccccc3)=C2c2ccccc2)cc(O)c1C(=O)O (centres unmarked) [Example 161, 2-ethoxy-6-hydroxy-4-(2-oxo-5,6-diphenyl-1,2,3,4-tetrahydropyrimidin-4-yl)benzoic acid]
19 | < 100 | CCOc1cc(C2NC(=O)NC(C3CCCC3)=C2c2ccccc2)cc([N+](=O)[O-])c1O (centres unmarked) [Example 172, 6-cyclopentyl-4-(3-ethoxy-4-hydroxy-5-nitrophenyl)-5-phenyl-3,4-dihydropyrimidin-2(1H)-one]
20 | < 100 | CCOc1cc(C2NC(=O)NC(C3CCCCC3)=C2c2ccsc2)cc([N+](=O)[O-])c1O (centres unmarked) [Example 174, 6-cyclohexyl-4-(3-ethoxy-4-hydroxy-5-nitrophenyl)-5-(thiophen-3-yl)-3,4-dihydropyrimidin-2(1H)-one]
21 | < 1000 | O=C1NC(c2ccccc2)=C(c2ccccc2)C(c2ccc(O)c([N+](=O)[O-])c2)N1 (centres unmarked) [Example 95, 4-(4-hydroxy-3-nitrophenyl)-5,6-diphenyl-3,4-dihydropyrimidin-2(1H)-one]
22 | < 1000 | CN(C)CCOc1cc(C2NC(=O)NC(c3ccccc3)=C2c2ccccc2)cc([N+](=O)[O-])c1O (centres unmarked) [Example 170, 4-(3-(2-(dimethylamino)ethoxy)-4-hydroxy-5-nitrophenyl)-5,6-diphenyl-3,4-dihydropyrimidin-2(1H)-one]
23 | < 100000 | O=C1NC(c2ccccc2)=C(c2ccccc2)C(c2cccc(C(=O)O)c2)N1 (centres unmarked) [Example 93, 3-(2-oxo-5,6-diphenyl-1,2,3,4-tetrahydropyrimidin-4-yl)benzoic acid]
24 | < 100 | O=C1NC(c2ccccc2)=C(c2ccccc2)C(c2cc(O)c(C(=O)O)c(Cl)c2)N1 (centres unmarked) [Example 163, 2-chloro-6-hydroxy-4-(2-oxo-5,6-diphenyl-1,2,3,4-tetrahydropyrimidin-4-yl)benzoic acid]
25 | < 100 | CCOc1cc(C2NC(=O)NC(c3ccc(C(F)(F)F)cc3)=C2c2ccccc2)cc([N+](=O)[O-])c1O (centres unmarked) [Example 113, 4-(3-ethoxy-4-hydroxy-5-nitrophenyl)-5-phenyl-6-(4-(trifluoromethyl)phenyl)-3,4-dihydropyrimidin-2(1H)-one]
26 | < 100 | CCOc1cc(C2NC(=O)NC(c3ccco3)=C2c2ccccc2)cc([N+](=O)[O-])c1O (centres unmarked) [Example 111, 4-(3-ethoxy-4-hydroxy-5-nitrophenyl)-6-(furan-2-yl)-5-phenyl-3,4-dihydropyrimidin-2(1H)-one]
27 | < 100 | COc1cc(C2NC(=O)NC(c3ccccc3)=C2c2ccccc2)cc(O)c1C(=O)O (centres unmarked) [Example 165, 2-hydroxy-6-methoxy-4-(2-oxo-5,6-diphenyl-1,2,3,4-tetrahydropyrimidin-4-yl)benzoic acid]
28 | < 100 | CCOc1cc([C@@H]2NC(=O)NC(c3cnn(C)c3)=C2c2ccsc2)cc(C(=O)O)c1O [Example 146, (S)-3-ethoxy-2-hydroxy-5-(6-(1-methyl-1H-pyrazol-4-yl)-2-oxo-5-(thiophen-3-yl)-1,2,3,4-tetrahydropyrimidin-4-yl)benzoic acid]
29 | < 100 | Cn1cc(C2=C(c3ccccc3)C(c3ccc(C(=O)O)c(O)c3)NC(=O)N2)cn1 (centres unmarked) [Example 167, 2-hydroxy-4-(6-(1-methyl-1H-pyrazol-4-yl)-2-oxo-5-phenyl-1,2,3,4-tetrahydropyrimidin-4-yl)benzoic acid]
